One data set concerns the target P-glycoprotein (P-gp) (Homo sapiens, UniProt P08183). The note with it: [^3H]-digoxin 1 μmol·L^−1, enisamium iodide 10 μmol·L^−1, Caco-2.
The nature of data set [1]: Caco-2 monolayer transport (permeability) study. The note with it: human; for Papp A→B at 120 min: Caco-2, pH 7.4, Caco-2, monolayer qualification marker, read-out: Papp (AB). The format is in vitro ADME, human. The method, then:
Cell culture. For the maintenance culture, Caco-2 cells were incubated at 37 °C, 5% CO2, and 90% relative humidity in 75 cm^2 culture flasks with supplemented Dulbecco's Modified Eagle's Medium (DMEM). The cells were passaged once a week using trypsin/ethylenediaminetetraacetic acid (EDTA) solution. Approximately 10^6 cells were seeded per flask. The culture medium was changed three times a week. For the transport studies, the Caco-2 cells were inoculated at a density of 60,000 cells/cm^2 on Transwell filter inserts and placed into 12-well flat-bottom cluster plates. The inserts (apical compartments) were supplied with 0.5 mL and the outer wells (basal compartments) with 1.5 mL of DMEM culture medium. The cells for the present transport study were cultured at 37 °C, 5% CO2 and 90% relative humidity in DMEM culture medium for 18 days until they formed confluent monolayers (31 passages). The culture medium was replaced every 2-3 days. […] Transport studies. […] All tests were carried out in triplicate. […] Testing of integrity of monolayers. Each batch of monolayer Caco-2 cells was inoculated and cultured under the same conditions on Transwell filter inserts in parallel. Qualification of intactness of the Caco-2 monolayer batches prior to the transport studies was carried out in triplicate for each transport condition using the selected transport markers fluorescein, [^3H]-propranolol and rhodamine 123. […] Mobile phase A consisted of 0.1% formic acid in water and mobile phase B of 0.1% formic acid in acetonitrile. […] The samples were kept at 10 °C and injected at a volume of 20 μL. The triple quad mass spectrometer system (Waters) was used in the positive (ESI^+) electrospray mode at 2.63 kV. […] Fluorescein and rhodamine 123 samples (100 μL) were determined by fluorescence reading. The samples were collected in 96 well microtiter plates. The fluorescence intensity was recorded by exciting the sample with light at 485 nm and measuring the emitted fluorescence at 535 nm. The fluorescence emission of a blank sample (Krebs-Ringer bicarbonate buffer (KRB) solution) was used as baseline.

A further data set deals with Caco-2 cells. Description: Tolerability of enisamium iodide to Caco-2 cells (TEER). Format: cell-based, human. The note with it: positive control. The method, then: For this purpose, the cells were incubated with the highest dose supposed for the permeability studies (100 μM). After an incubation period of 120 min at 37 °C the TEER was checked to assess the integrity of the cell monolayers. […] All experiments were performed in triplicate. As a positive control, sodium dodecyl sulfate was used in this experiment.
The TEER was calculated according to TEER= Rc(A)=(Rc+f−Rf)A (Ω·cm^2). where Rc(A) is the electrical resistance of the monolayer with the area A (Ω cm^2); Rc+f is the electrical resistance of the monolayer including the filter (Ω); Rf is the electrical resistance of the filter without cells (Ω); and A is the area of the monolayer (cm^2).

P-glycoprotein (P-gp), sequence (P08183 whole entry): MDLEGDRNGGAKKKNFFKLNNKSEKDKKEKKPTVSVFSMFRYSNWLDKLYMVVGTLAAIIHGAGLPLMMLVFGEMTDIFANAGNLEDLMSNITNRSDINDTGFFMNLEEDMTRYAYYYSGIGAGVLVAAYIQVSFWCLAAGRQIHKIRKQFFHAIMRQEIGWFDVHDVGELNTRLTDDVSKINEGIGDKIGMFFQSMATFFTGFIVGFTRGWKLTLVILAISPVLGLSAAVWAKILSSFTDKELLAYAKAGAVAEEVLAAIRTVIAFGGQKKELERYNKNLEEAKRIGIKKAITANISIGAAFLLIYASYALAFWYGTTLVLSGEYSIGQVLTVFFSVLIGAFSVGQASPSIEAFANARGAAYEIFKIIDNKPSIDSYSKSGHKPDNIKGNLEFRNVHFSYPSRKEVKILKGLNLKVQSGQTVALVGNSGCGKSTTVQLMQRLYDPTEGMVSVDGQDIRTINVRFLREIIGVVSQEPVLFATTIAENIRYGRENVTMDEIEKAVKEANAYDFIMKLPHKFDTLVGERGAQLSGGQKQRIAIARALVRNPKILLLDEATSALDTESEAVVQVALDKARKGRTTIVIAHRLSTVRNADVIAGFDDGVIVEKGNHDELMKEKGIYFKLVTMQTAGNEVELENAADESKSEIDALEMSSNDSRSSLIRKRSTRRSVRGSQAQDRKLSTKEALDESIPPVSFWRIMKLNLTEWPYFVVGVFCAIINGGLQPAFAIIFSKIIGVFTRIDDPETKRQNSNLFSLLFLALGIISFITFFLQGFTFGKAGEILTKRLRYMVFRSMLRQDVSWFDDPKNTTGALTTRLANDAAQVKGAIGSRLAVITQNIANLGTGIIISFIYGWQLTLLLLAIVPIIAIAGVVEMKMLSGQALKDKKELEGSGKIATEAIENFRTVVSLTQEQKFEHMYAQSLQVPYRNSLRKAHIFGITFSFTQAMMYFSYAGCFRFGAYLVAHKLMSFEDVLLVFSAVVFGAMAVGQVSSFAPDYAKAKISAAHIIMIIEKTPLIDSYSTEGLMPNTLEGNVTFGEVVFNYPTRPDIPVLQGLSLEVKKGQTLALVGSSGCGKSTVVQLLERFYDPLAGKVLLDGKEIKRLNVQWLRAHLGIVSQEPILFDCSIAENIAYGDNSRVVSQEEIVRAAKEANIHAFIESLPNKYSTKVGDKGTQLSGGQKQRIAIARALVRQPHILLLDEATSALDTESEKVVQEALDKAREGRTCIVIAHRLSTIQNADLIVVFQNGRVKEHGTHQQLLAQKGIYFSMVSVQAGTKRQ
Method for P-glycoprotein (P-gp): Transport studies. Caco-2 monolayers were rinsed twice with KRB to remove the cell culture medium. Fresh KRB (pH 7.4) was filled into the acceptor compartment and the transport solution (test substance in KRB at pH 7.4) into the donor compartment. The cells were equilibrated for 30 min in a CO2 incubator at 37 °C and stayed there between the sample collection points. After pre-incubation, samples were taken from the donor and acceptor compartment, respectively. The concentration of test compound in the donor compartment was defined as initial donor concentration. At 0 min, 30 min, 60 min, 90 min and 120 min 100 µL samples were drawn from the acceptor compartment. The amount of solution removed was replaced by fresh, pre-warmed KRB. At the final pull point, samples were retrieved from the donor compartment, too. All tests were carried out in triplicate. For studies including the P-glycoprotein (P-gp) inhibitor cyclosporin A and the marker compound for P-gp transport inhibitors, [^3H]-digoxin the substances were applied to both the donor and acceptor compartment in the same concentration. […]
[^3H]-propranolol and [^3H]-digoxin were quantified by liquid scintillation counting. […] After an equilibration period of at least 1 h radiation was measured for 2 min per well in a scintillation counter. The recorded counts in a blank sample were subtracted from the value of each test sample.
Data of the permeability study were calculated using MS Excel (Microsoft, Redmond, WA, USA). Apparent permeability coefficient (Papp) was calculated according to the following equation: Papp=ΔQ 1 1/Δt m0 A VD(cm·s^−1) where ΔQ/Δt is the permeability rate (steady state transport rate) obtained from the profile of the transported mass or radioactivity of substrate versus time (µg or dpm·s^−1). Calculated by the linear regression of time and concentration. A is the area of the exposed cell monolayer (cm^2), m0 is the initial mass or radioactivity of test compound in the donor compartment (µg or dpm), and VD is the buffer volume of donor compartment. […]

Regarding `C[C@H]1O[C@@H](O[C@H]2[C@@H](O)C[C@H](O[C@H]3[C@@H](O)C[C@H](O[C@H]4CC[C@@]5(C)[C@H](CC[C@@H]6[C@@H]5C[C@@H](O)[C@]5(C)[C@@H](C7=CC(=O)OC7)CC[C@]65O)C4)O[C@@H]3C)O[C@@H]2C)C[C@H](O)[C@@H]1O` [[^3H]-digoxin, reference compound], the “Bi-directional transport in presence of enisamium iodide” value on P-glycoprotein (P-gp) was “transported much more in the ba direction as compared to the ab”.

In the case of `O=C1OC2(c3ccc(O)cc3Oc3cc(O)ccc32)c2ccccc21` [fluorescein, reference compound], in data set [1], the Papp A→B at 120 min was 0.18 ×10⁻⁶ cm/s.

Consider `CC(C)NCC(O)COc1cccc2ccccc12` (stereo not shown) [propranolol, reference compound], for which the Papp A→B at 120 min in data set [1] was found to be 19.6 ×10⁻⁶ cm/s.

In general, Papp B→A refers to the apparent permeability from the basolateral to the apical side of a cell layer. As for `COC(=O)c1ccccc1-c1c2ccc(=N)cc-2oc2cc(N)ccc12` [rhodamine 123, reference compound], the efflux ratio at 120 min in data set [1] (pH 7.4, Caco-2, efflux ratio, monolayer qualification marker, read-out: Papp (BA)/Papp (AB)) was 17.1. This compound came in with a Papp B→A at 120 min in data set [1] (pH 7.4, Caco-2, monolayer qualification marker) of 4.5 ×10⁻⁶ cm/s.

Turning to `CCCCCCCCCCCCOS(=O)(=O)[O-].[Na+]` [sodium dodecyl sulfate], in the data set with Caco-2 cells (growth medium within 24 h), the TEER after recovery was 118 Ω·cm^2. The TEER after exposure in the data set on Caco-2 cells (immediate and remaining reduction) is < 108 Ω·cm^2.

The record behind these values is paper PMC5874533 (Scientia Pharmaceutica, 2018).
